Results on eleven molecules are retold here after US20060019971A1, “Treatment of cardiovascular disease with inhibitors of p38 kinase” (priority 2003, published 2006).

In one assay the target is T1, p38 MAP kinase (Homo sapiens, UniProt Q16539).
T1 construct: expressed in transfected cells; kinase immunoprecipitated from lysates
As to the kind of experiment: p38 MAP kinase phosphorylation assay (similar to Kumar). Type of assay: biochemical. The note with it: assay similar to the phosphorylation assay (Kumar). The procedure: Alternative assays involving in vitro analysis of potential inhibitors include those where cells (HeLa) transfected with DNA coding for relevant kinases can be activated with substances such as sorbitol, IL-1, TNF, or PMA (phorbol myristate acetate). After immunoprecipitation of cell lysates, equal aliquots of immune complexes of the kinases are pre-incubated for an adequate time with a specific concentration of the potential inhibitor followed by addition of kinase substrate buffer mix containing labeled ATP and GST-ATF2 or MBP. After incubation, kinase reactions are ceased by the addition of SDS loading buffer. Phosphorylated substrate is resolved through SDS-PAGE and visualized and quantitated in a phosphorimager. Both p38 regulation, in terms of phosphorylation, and IC50 values can be determined by quantitation. See, for example Kumar,S., McDonnell, P., Gum, R., Hand, A., Lee, J., and Young, P. (1997) Biochem. Biophys. Res. Commun. 235, 533-538.

A further assay deals with ET-1 mRNA in HPBMCs. As to the kind of experiment: ET-1 gene expression in HPBMCs, real-time PCR. The assay is classed as cell-based, human. The following applies: 10 μg/ml CRP added to 10% FCS, HPBMCs, 6 hours. The procedure:
5×10^6 HPBMCs were plated in 6-well. After 1 hour medium was removed and cells were treated with vehicle or 1 μM P38 INHIBITOR in RPMI 1640 medium. After 1 hour cells were stimulated with 10% FCS only or 10 μg/ml CRP plus 10% FCS. After 6 hours RNA was extracted from the cells and ET-1 gene expression level was determined by real-time PCR as described in the Experimental section.
Cryopreserved human peripheral blood monocytes (HPBMCs, from Biowitker, Walkersvill, Md.) were thawed and washed twice in RPMI 1640. Cells were plated in tissue culture plates and incubated in 5% CO2 at 37 C. After 1 hr media were removed and cells were treated with various treatments. After 2 to 20 hours conditioned media and/or cell lysates were collected for the analyses of secreted cytokines, protein or mRNA expression. 10 μg/ml of purified human CRP (Calbiochem, San Diego, Calif.) was used in most of the treatments. In some experiments fetal calf serum (FCS from ATCC) was added to a final concentration of 10% together with CRP. In the examples provided herein, including those assessing the effects of p38 antagonism, cells were pre-treated with SD, a p38 small molecule inhibitor (Compound 162 in Table A) for 1 hour prior to CRP treatment as described above. In a parallel series of experiments, the effect of vehicle (DMSO) was tested. For TaqMan analyses of various gene expression cells were lysed in ice-cold RLT lysis buffer (Qiagen, Valencia, Calif.) and the lysates were kept in −80° C. until the analyses. […]
RNA was extracted from the cells using Qiagen RNA extraction kit according to the manufacturer's instruction. The expression of pro-inflammatory genes IL-1β, IL-6, IL-8, TNFα, COX-2, ET-1, TF were assessed by real-time PCR. […]
Real-time RT-PCR was performed in a two-step manner. cDNA synthesis and real-time detection were carried out in a PTC-100™ Thermal Cycler (MJ Research Inc, Waltham, Mass.) and an ABI Prism™ 7700 Sequence Detection System (Applied Biosystems, Foster City, Calif.), respectively. […] Relative quantitation of gene expression was performed using the relative standard curve method. […]
For orientation: Quantitative PCR measures a nucleic acid by following its amplification.

T1 sequence (Q16539 whole entry): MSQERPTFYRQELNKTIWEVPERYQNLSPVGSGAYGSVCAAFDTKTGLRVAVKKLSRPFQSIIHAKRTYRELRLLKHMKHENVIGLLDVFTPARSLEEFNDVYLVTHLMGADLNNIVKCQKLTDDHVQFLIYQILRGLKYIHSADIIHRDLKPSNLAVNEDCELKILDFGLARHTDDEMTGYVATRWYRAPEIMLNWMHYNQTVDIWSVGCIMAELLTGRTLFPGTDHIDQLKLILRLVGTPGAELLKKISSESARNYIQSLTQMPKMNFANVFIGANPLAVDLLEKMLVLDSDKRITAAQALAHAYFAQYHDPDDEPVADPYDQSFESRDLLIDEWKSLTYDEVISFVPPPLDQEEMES

With `COc1cc2c(cc1C(=O)N1CCC(Cc3ccc(F)cc3)CC1)c(C(=O)C(=O)O)cn2C` [Compound 2], the “p38 MAP kinase activity” value at p38 MAP kinase is given as “exhibit p38 MAP kinase activity”.

Consider `COc1cc2c(cc1C(=O)N1CCC(Cc3ccc(F)cc3)CC1)c(C(=O)C(=O)N1CCN(C)CC1)cn2C` [Compound 3], for which the “p38 MAP kinase activity” value on p38 MAP kinase is given as “exhibit p38 MAP kinase activity”.

Consider `COc1cc2c(cc1C(=O)N1C[C@H](C)N(Cc3ccc(F)cc3)C[C@@H]1C)c(C(=O)C(=O)N(C)C)cn2C` [Compound 15], for which the “p38 MAP kinase activity” value on p38 MAP kinase is “exhibit p38 MAP kinase activity”.

For the molecule `COc1cc2c(cc1C(=O)N1CCC(=Cc3ccc(F)cc3)CC1)c(C(=O)C(=O)N(C)C)cn2C` [Compound 67], the “p38 MAP kinase activity” value on p38 MAP kinase is on record as “exhibit p38 MAP kinase activity”.

For the molecule `Cn1cc(C(=O)C(=O)N2CCCC2)c2cc(C(=O)N3CCC(Cc4ccc(F)cc4)CC3)c(Cl)cc21` [Compound 84], the “p38 MAP kinase activity” value at p38 MAP kinase was “exhibit p38 MAP kinase activity”.

As for `COCn1cc(C(=O)C(=O)N(C)C)c2cc(C(=O)N3C[C@H](C)N(Cc4ccc(F)cc4)C[C@H]3C)c(OC)cc21` [Compound 92], the “p38 MAP kinase activity” value at p38 MAP kinase is recorded as “exhibit p38 MAP kinase activity”.

For the molecule `C[C@@H]1CN(Cc2ccc(F)cc2)[C@@H](C)CN1C(=O)c1cc2c(C(=O)C(=O)N3CCOCC3)cn(C)c2cc1Cl` [Compound 96], the “p38 MAP kinase activity” value at p38 MAP kinase is on record as “exhibit p38 MAP kinase activity”.

As to `COc1cc2[nH]cc(C(=O)C(=O)N3CCOCC3)c2cc1C(=O)N1CCC(Cc2ccc(F)cc2)CC1` [Compound 141], the “p38 MAP kinase activity” value on p38 MAP kinase was “exhibit p38 MAP kinase activity”.

As to `COc1cc2[nH]cc(C(=O)C(=O)N(C)C)c2cc1C(=O)N1CC(C)N(Cc2ccc(F)cc2)CC1C` (centres unmarked) [Compound 154], the “p38 MAP kinase activity” value at p38 MAP kinase was “exhibit p38 MAP kinase activity”.

On to `Cc1[nH]c2cc(Cl)c(C(=O)N3CCC(Cc4ccc(F)cc4)CC3)cc2c1C(=O)C(=O)N1CCN(C)CC1` [Compound 169], for which the “p38 MAP kinase activity” value at p38 MAP kinase is listed as “exhibit p38 MAP kinase activity”.

B1: CRP: purified human CRP (Calbiochem), stimulus applied at 10 μg/ml to HPBMCs (protein, UniProt P02741 19-224, looked up)
C-reactive protein: QTDMSRKAFVFPKESDTSYVSLKAPLTKPLKAFTVCLHFYTELSSTRGYSIFSYATKRQDNEILIFWSKDIGYSFTVGGSEILFEVPEVTVAPVHICTSWESASGIVEFWVDGKPRVRKSLKKGYTVGAEASIILGQEQDSFGGNFEGSQSLVGDIGNVNMWDFVLSPDEINTIYLGGPFSPNVLNWRALKYEVQGEVFTKPQLWP
On to B1, for which the “augmentation of ET-1 gene expression” value in the assay on ET-1 mRNA in HPBMCs is 1.7 fold.
